SMILES strings stand for the structures. Values after ≈ are worked out from the molar mass of the structure shown. Like-named read-outs stand apart in the source and are kept apart here.

A short description of series [1]: Cytotoxicity, release of lactate dehydrogenase (LDH). It counts as cell-based, menschlichen. As to conditions: human. The source says:
(§1) Die Zellproliferation der Hautzellen wurde anhand der bekannten Neutralrotmethode untersucht. Die Zellschädigung wurde durch gleichzeitige Untersuchung der Freisetzung eines cytosolischen Enzyms, der Lactatdehydrogenase, zusätzlich bestimmt. In einigen Versuchen wurde auch die DNA-Synthese anhand der Inkorporation von ^3H-Thymidin mituntersucht.

Series [2] deals with menschlichen Keratinozyten (HaCat). The series can be described thus: Inhibition of cell proliferation, neutral red (NR) method. It counts as cell-based. As to conditions: Homo sapiens, read-out: NR-Methode *IC50.
Source text: as §1

Series [3] shares this test system. The series can be described thus: DNA synthesis, 3H-thymidine incorporation. The series is classed as cell-based. As to conditions: Homo sapiens; HaCat keratinocytes; influence on DNA synthesis; read-out: ^3H-Thymidin-Einbau.
Source text: as §1
On the technique in general: Dividing cells build labelled thymidine or BrdU into new DNA.

Setting [4] is: HaCat keratinocytes, 50% inhibition of cell growth.

`O=C(O)/C=C\C(=O)O` [Maleinsäure]: the CC50 in series [1] (hacat keratinocytes) was greater than 1000 µg/mL. Further, the IC50 in series [2] (setting [4]) came to 1700 µg/mL (≈ 14.6 mM).
For `O=Cc1ccccc1O` [Salicylaldehyd] the same measures were greater than 100 µg/mL and 34 µg/mL (≈ 0.278 mM).
In the case of `OCc1ccccc1O` [Salicylalkohol, 2-Hydroxybenzylalkohol], the CC50 in series [1] (hacat keratinocytes) was greater than 600 µg/mL. The IC50 is 780 µg/mL (≈ 6.28 mM) in series [2] (setting [4]) and 300 µg/mL (≈ 2.42 mM) in series [3].
`O=C(O)c1ccccc1O` [Na-Salicylat, Natriumsalicylat]: the CC50 in series [1] (HaCat keratinocytes, measure of cytotoxicity, as concentration of the active substance, read-out: LDH-Freisetzung*) was greater than 2000 µg/mL. Besides, the IC50 in series [2] (HaCaT) was 1500 µg/mL (≈ 10.9 mM).
In series [1] (hacat keratinocytes), `C[C@@H]1C[C@H]2[C@@H]3CCC4=CC(=O)C=C[C@]4(C)[C@@]3(F)[C@@H](O)C[C@]2(C)[C@@]1(O)C(=O)CO` [Dexamethason] showed a CC50 greater than 600 µg/mL. In addition, in series [2] (HaCaT), the IC50 is 800 µg/mL (≈ 2.04 mM).
In turn, `O=C(O)/C=C/C(=O)O` [Na-Fumarat, Natriumfumarat] showed a CC50 in series [1] (hacat keratinocytes) greater than 10000 µg/mL. Moreover, the IC50 in series [2] (setting [4]) was 4900 µg/mL (≈ 42.2 mM).

Values taken from patent EP0913150A1, “Combination of actives, viz. salicyl alcohol and fumaric acid and/or maleic acid, for the treatment of seborrheoic skin diseases, especially psoriasis” (Phytexpert, Pharm-Tox-Consulting GmbH, priority 1997, dated 1999).
